Assay results as given in patent publication US7935706B2, “Nitrogen-containing heterocycle derivatives substituted with cyclic group” (Shionogi & Co., Ltd., priority 2006, dated 2011).
Where two headings read alike, the source gives them in different places.

Legend:
[1] = biological target: T1, NMDA receptor (NR1 subunit and NR2B subunit) (Mus musculus, UniProt P35438+Q01097); assay: Measurement of expression of NMDA receptor and Ca ion influx amount (glutamic acid/glycine-induced, HEK293 cell co-expressing NR1 and NR2B subunits, Fluo-3/AM); type: cell-based
T1 construct: expressed in transfected cells; host or cells: HEK293 cells, transient transfection with pcDNA3.1 plasmids
T1 sequence (Q01097 27-1482, other chains not shown): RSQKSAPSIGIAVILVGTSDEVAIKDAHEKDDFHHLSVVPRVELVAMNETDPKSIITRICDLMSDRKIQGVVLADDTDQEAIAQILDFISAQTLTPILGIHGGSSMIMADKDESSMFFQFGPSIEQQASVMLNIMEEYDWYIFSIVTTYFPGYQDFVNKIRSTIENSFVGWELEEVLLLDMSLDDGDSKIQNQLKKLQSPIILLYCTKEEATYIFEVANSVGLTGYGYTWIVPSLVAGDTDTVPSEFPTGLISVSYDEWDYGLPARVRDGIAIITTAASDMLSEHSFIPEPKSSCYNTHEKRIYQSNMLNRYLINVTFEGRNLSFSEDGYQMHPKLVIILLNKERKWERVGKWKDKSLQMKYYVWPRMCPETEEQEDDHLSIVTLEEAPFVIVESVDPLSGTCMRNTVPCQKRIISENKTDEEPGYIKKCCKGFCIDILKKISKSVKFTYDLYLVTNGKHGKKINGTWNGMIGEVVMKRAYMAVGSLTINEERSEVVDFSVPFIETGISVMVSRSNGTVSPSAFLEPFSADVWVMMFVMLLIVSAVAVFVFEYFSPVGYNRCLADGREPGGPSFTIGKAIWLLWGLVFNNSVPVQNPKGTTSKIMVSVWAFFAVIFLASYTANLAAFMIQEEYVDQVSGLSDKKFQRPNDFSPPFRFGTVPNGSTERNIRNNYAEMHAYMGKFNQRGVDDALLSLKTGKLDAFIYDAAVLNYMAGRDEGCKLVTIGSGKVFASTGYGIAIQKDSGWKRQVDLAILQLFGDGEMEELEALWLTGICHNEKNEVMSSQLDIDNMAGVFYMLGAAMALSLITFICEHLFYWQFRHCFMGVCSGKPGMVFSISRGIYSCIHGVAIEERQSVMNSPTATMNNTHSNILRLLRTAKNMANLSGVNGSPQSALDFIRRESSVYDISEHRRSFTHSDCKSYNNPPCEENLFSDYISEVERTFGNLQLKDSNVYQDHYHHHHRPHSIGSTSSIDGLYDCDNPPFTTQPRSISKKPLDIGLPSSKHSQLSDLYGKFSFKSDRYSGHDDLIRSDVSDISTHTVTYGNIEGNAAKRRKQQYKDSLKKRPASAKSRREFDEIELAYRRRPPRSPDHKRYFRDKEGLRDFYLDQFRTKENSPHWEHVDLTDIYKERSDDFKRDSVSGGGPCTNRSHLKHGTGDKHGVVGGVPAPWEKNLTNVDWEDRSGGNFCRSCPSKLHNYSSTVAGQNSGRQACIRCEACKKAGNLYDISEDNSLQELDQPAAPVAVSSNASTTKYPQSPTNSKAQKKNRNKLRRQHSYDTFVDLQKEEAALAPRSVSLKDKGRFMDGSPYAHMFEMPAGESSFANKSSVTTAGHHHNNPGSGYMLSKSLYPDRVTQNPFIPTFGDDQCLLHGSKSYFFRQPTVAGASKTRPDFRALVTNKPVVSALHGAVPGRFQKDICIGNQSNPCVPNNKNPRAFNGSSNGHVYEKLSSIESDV
Experimental: Measurement of Expression of NMDA Receptor and Ca Ion Influx Amount
A complementary DNA (cDNA) of a mouse NMDA receptor subunit was transiently introduced into a HEK293 cell and, after 1 day from introduction, change in a glutamic acid/glycine-induced intracelluar Ca amount was measured using a Ca ion reactive fluorescent coloring matter.
The HEK293 cell was cultured, and passaged using a modified Dulbecco's Eagle medium (DMEM, low glucose).
The HEK293 cell (20,000/well) was seeded on a 96-well plate, a NR1 subunit and a NR2B subunit of the NMDA receptor incorporated into the pcDNA3.1 plasmid were transiently introduced into a cell, and the subunits were co-expressed. An introduction amount of a DNA was 0.025 μg in the case of the NR1 subunit, and 0.075 μg in the case of NR2B subunit per well. For the cell after introduction, cell death was inhibited using 50 μM of the NMDA receptor antagonist MK-801.
For adjusting a test compound and washing a cell, Krebs/Ringer/Hepes buffer (KRH, Ca: 5 mM) was used.
After 1 day from introduction, the NMDA receptor antagonist MK-801 was washed out using the KRH buffer, and a Ca ion indication fluorescent coloring matter Fluo-3/AM was made to be taken into the cell. Ca ion influx was induced with 20 μM glutamic acid/2 μM glycine. Change in a fluorescent amount due to Ca ion influx into the cell was measured at excitation of 480 nm using a fluorescent imaging system FDSS 3000.
From a measured value of the test compound, a Ca ion influx inhibition rate (%) was obtained by the following equation, and a dose at which influx is inhibited 50% (IC50) was calculated.
Ca ion influx inhibition rate(%)=100−[(fluorescent amount in the presence of test compound−background fluorescent amount)/(total fluorescent amount−background fluorescent)]×100

NR1/NR2B receptor = biological target: T2, NR1/NR2B receptor (Rattus norvegicus, UniProt P35439+Q00960); assay: Test of binding with NMDA receptor (NR1/NR2B receptor): competition with [3H]-Ifenprodil on rat cerebral cortex membrane specimen
T2 construct: from tissue; host or cells: rat cerebral cortex membranes (male Slc: Wistar rat)
T2 sequence (Q00960 27-1482, other chains not shown): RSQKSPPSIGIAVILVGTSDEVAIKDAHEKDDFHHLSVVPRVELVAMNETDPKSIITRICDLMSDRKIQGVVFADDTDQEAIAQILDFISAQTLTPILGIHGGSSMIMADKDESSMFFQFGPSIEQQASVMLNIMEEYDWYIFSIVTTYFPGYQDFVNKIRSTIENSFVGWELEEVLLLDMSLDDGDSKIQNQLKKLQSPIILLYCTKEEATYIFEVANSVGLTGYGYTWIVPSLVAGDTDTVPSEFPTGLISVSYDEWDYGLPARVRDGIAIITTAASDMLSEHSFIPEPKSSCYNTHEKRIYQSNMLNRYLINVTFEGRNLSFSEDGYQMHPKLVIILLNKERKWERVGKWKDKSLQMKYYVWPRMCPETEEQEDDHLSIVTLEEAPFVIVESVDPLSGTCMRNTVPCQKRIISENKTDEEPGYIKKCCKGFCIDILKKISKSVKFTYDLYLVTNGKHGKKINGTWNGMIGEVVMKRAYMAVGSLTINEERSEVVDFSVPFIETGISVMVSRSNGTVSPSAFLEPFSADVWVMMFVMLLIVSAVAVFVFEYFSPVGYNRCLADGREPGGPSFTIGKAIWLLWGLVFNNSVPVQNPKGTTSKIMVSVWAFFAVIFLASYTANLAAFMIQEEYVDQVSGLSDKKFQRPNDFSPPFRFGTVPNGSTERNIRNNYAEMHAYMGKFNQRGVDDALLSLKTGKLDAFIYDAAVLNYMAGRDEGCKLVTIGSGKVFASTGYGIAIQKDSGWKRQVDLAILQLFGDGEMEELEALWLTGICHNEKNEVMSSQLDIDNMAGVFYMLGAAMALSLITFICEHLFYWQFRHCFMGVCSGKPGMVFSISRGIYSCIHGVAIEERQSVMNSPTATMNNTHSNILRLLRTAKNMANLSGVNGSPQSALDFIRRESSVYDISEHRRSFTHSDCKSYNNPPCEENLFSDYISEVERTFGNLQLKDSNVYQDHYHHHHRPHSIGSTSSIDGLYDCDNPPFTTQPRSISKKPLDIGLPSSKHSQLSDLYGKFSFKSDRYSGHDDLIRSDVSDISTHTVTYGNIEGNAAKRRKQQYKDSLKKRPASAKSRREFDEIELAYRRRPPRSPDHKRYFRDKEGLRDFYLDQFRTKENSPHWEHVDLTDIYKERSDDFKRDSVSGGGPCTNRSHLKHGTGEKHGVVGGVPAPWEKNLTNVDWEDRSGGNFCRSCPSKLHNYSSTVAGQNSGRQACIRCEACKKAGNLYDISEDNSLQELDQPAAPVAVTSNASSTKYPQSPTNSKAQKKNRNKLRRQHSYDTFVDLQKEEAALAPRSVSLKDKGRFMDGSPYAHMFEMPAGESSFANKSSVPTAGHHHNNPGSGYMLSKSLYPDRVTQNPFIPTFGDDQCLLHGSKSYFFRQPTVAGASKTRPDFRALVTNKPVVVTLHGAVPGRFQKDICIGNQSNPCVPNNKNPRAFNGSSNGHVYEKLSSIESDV
Experimental: Test of Binding with NMDR Receptor (NR1/NR2B Receptor)
Using Ifenprodil which is an antagonist specific for a NR1/NR2B subtype receptor as a ligand, an experiment of competition between a receptor and a test compound was performed.
Using a male Slc: Wistar rat as an animal, a brain was isolated after decapitation, and a cerebral cortex was fractionated. The cerebral cortex was homogenized with a 20-fold amount of an ice-cooled 50 mM Tris/HCl buffer (pH 7.4), and the homogenate was centrifuged at 4° C. and 27,500×g for 10 minutes. The resulting precipitate was suspended in the same buffer, and this was again centrifuged. This operation was repeated for three times, the resulting precipitate was suspended in a buffer, and this was stored at −80° C. Immediately before an experiment, the frozen suspension was thawed at room temperature, this was centrifuged at 4° C. and 27,500×g for 10 minutes, and the resulting precipitate was suspended in a buffer. Further, the suspension was diluted 10-fold with a buffer, and this was used as a membrane specimen in an experiment. In a binding experiment, to 470 μl of the membrane specimen were added […] of each of test compounds having different concentrations, 10 μl of a labeled ligand [^3H]-Ifenprodil and 10 μl GBR-12909, followed by incubation at an ice temperature for 120 minutes. A concentration of [^3H]-Ifenprodil of the labeled ligand was finally 5 nM, and a concentration of GBR-12909 was finally 3 μM. For measuring a total binding amount, DMSO as a solvent was used and, for measuring a non-specific binding amount, 100 μM Ifenprodil was used. GBR-12909 was added in order to block binding of [^3H]-Ifenprodil to non-polyamine-sensitive site. After incubation, a bound formand a free foramwere separated using Whatman GF/C filter (manufactured by Whatman), and the filter was washed with 2.5 ml ice-cooled buffer four times. The filter was immersed in liquid scintillation (Cryasol I, manufactured by Nacalai tesque), and radioactivity (dpm) was measured with a liquid scintillation counter. From a measured value, a binding inhibition rate (%) was obtained by the following equation, and a dose at which binding is inhibited 50% (IC50) was calculated. A formula of GBR-12909 (vanoxerine) is shown below.
Binding inhibition rate(%)=100−[(binding amount in the presence of test compound−non-specific binding amount)/(total binding amount−non-specific binding amount)]×100

[2] = Ca ion influx induced with 20 μM glutamic acid/2 μM glycine, HEK293 cell with mouse NR1/NR2B, read-out: Ca2+ IC50
[3] = [3H]-Ifenprodil 5 nM, GBR-12909 3 μM, rat cerebral cortex membranes, ice temperature 120 minutes, read-out: NR2B (IC50 μM)
[4] = same Ca ion influx test, read-out: IC50 (Ca ion influx inhibition)
[5] = same binding test, read-out: IC50 (binding with NR1/NR2B receptor)

Row | melting point | IC50 [1, 2] | IC50 (NR1/NR2B receptor; [3]) | IC50 [1, 4] | IC50 (NR1/NR2B receptor; [5]) | Structure (SMILES)
1 | 226 to 228 °C | – | – | – | – | CCOc1ccc(N2CCN(C(=O)C(=O)Nc3ccc4[nH]c(=O)oc4c3)CC2)cc1F [Compound I-253]
2 | 122 to 124 °C | – | – | – | – | COc1cc(N2CCN(C(=O)C(=O)Nc3ccc4[nH]c(=O)oc4c3)C[C@H]2C)ccc1Cl [Compound I-251]
3 | 201 to 203 °C | – | – | – | – | COc1cc(N2CCN(C(=O)C(=O)Nc3ccc4[nH]c(=O)oc4c3)CC2)ccc1Cl [Compound I-250]
4 | 264 to 266 °C (dec.) | – | – | – | – | CC(=O)c1ccc(N2CCN(C(=O)C(=O)Nc3ccc4[nH]c(=O)oc4c3)CC2)cc1 [Compound I-203]
5 | – | 11 nM | 0.041 µM | – | – | O=C(C=C1CCN(c2ccc(Cl)c(Cl)c2)CC1)Nc1ccc2[nH]c(=O)oc2c1 [Compound I-184]
6 | – | 34 nM | 0.034 µM | – | – | O=C(Nc1cnc2[nH]c(=O)oc2c1)C(=O)N1CCN(c2ccc(Cl)c(F)c2)CC1 [Compound I-113]
7 | – | 13 nM | 0.062 µM | – | – | O=C(C=C1CCN(c2ccc(C(F)(F)F)c(F)c2)CC1)Nc1ccc2[nH]c(=O)oc2c1 [Compound I-180]
8 | – | 10 nM | 0.045 µM | – | – | O=C(Nc1cnc2[nH]c(=O)oc2c1)C(=O)N1CCN(c2ccc(Cl)c(Cl)c2)CC1 [Compound I-105]
9 | – | – | – | ≤ 100 nM | ≤ 0.1 µM | O=C(C=C1CCN(c2ccc(OC(F)(F)F)cc2)CC1)Nc1ccc2[nH]c(=O)oc2c1 [Compound I-225]
10 | – | – | – | ≤ 100 nM | ≤ 0.1 µM | C[C@@H]1CN(C(=O)C(=O)Nc2ccc3[nH]c(=O)oc3c2)CCN1c1ccc(Cl)cn1 [Compound I-228]
11 | – | – | 0.029 µM | ≤ 100 nM | – | C[C@@H]1CN(c2ccc(Cl)cc2)CCN1C(=O)C(=O)Nc1ccc2[nH]c(=O)oc2c1 [Compound I-178]
12 | – | – | – | ≤ 100 nM | ≤ 0.1 µM | O=C(NCCC1CCN(c2ccc(OC(F)(F)F)cc2)CC1)c1ccc(=O)[nH]c1 [Compound I-230]
13 | – | – | – | ≤ 100 nM | ≤ 0.1 µM | C[C@@H]1CN(C(=O)C(=O)Nc2ccc3[nH]c(=O)oc3c2)CCN1c1ccc(Cl)c(F)c1 [Compound I-207]
14 | – | – | 0.018 µM | ≤ 100 nM | – | O=C(Nc1ccc2[nH]c(=O)oc2c1)C(=O)N1CCN(c2ccc(C(F)(F)F)cn2)CC1 [Compound I-103]
15 | – | 1 nM | 0.012 µM | – | – | O=C(Nc1ccc2[nH]c(=O)oc2c1)C(=O)N1CCN(c2ccc(Cl)c(F)c2)CC1 [Compound I-109]
16 | – | – | – | ≤ 100 nM | ≤ 0.1 µM | C[C@@H]1CN(c2ccc(C(F)(F)F)cn2)CCN1C(=O)C(=O)Nc1ccc2[nH]c(=O)oc2c1 [Compound I-227]
17 | – | 1 nM | 0.011 µM | – | – | O=C(Nc1cnc2[nH]c(=O)[nH]c2c1)C(=O)N1CCN(c2ccc(C(F)(F)F)cc2)CC1 [Compound I-101]
18 | – | 49 nM | 0.049 µM | – | – | O=C(CC1(O)CCN(c2ccc(C(F)(F)F)c(F)c2)CC1)Nc1ccc2[nH]c(=O)oc2c1 [Compound I-116]
19 | – | 15 nM | 0.023 µM | – | – | O=C(NCCC1CCN(c2ccc(Cl)c(Cl)c2)CC1)c1ccc(=O)[nH]c1 [Compound I-196]
20 | – | – | – | ≤ 100 nM | ≤ 0.1 µM | COc1ccc(N2CCC(=CC(=O)Nc3ccc4[nH]c(=O)oc4c3)CC2)cc1F [Compound I-238]
21 | – | – | – | ≤ 100 nM | ≤ 0.1 µM | O=C(Nc1ccc2[nH]c(=O)oc2c1)C(=O)N1CCCN(c2ccc(C(F)(F)F)c(F)c2)CC1 [Compound I-114]
22 | 118 to 120 °C | – | – | – | – | COc1ccc(N2CCN(C(=O)C(=O)Nc3ccc4[nH]c(=O)oc4c3)C[C@H]2C)cc1Cl [Compound I-248]
23 | – | – | – | ≤ 100 nM | ≤ 0.1 µM | O=C(Nc1ccc2[nH]c(=O)oc2c1)C(=O)N1CCN(c2ccc(OC(F)(F)F)cc2)CC1 [Compound I-211]

The next lines start with the compound.

Row | Structure (SMILES) | melting point | IC50 [1, 2] | IC50 (NR1/NR2B receptor; [3]) | IC50 [1, 4] | IC50 (NR1/NR2B receptor; [5])
24 | O=C(NCCC1CCN(c2ccc(C(F)(F)F)cn2)CC1)c1ccc(=O)[nH]c1 [Compound I-6] | 232 to 234 °C | 39 nM | – | – | –
25 | O=C(CC1=CCN(c2ccc(C(F)(F)F)cn2)CC1)Nc1ccc2[nH]c(=O)oc2c1 [Compound I-63] | 236 to 237 °C | 79 nM | – | – | –
26 | O=C(NC1CCN(c2ccc(Cl)cc2)CC1)c1ccc(=O)[nH]c1 [Compound I-4] | 274 to 275 °C (dec.) | – | – | – | –
27 | O=C(CC1(O)CCN(c2ccc(C(F)(F)F)cc2)CC1)Nc1ccc2c(c1)CC(=O)N2 [Compound I-65] | 260 to 261 °C | – | – | – | –
28 | O=C(Nc1ccc2[nH]c(=O)oc2c1)C(=O)N1CCN(c2ccc(C(F)(F)F)c(F)c2)CC1 [Compound I-98] | – | – | 0.015 µM | ≤ 100 nM | –
29 | O=C(Nc1ccc2[nH]c(=O)oc2c1)C(=O)N1CCN(c2cccc(Cl)c2)CC1 [Compound I-86] | – | – | – | ≤ 100 nM | ≤ 0.1 µM
30 | O=C(CC1(O)CCN(c2ccc(C(F)(F)F)cc2)CC1)Nc1ccc2[nH]c(=O)oc2c1 [Compound I-30] | – | 4 nM | 0.077 µM | – | –
31 | O=C(NCCC1(O)CCN(c2ccc(C(F)(F)F)cn2)CC1)c1cn[nH]c1 [Compound I-67] | 199 to 200 °C | – | – | – | –
32 | O=C(Nc1ccc2[nH]c(=O)oc2c1)C(=O)N1CCCN(c2ccc(Cl)cc2)CC1 [Compound I-100] | – | 10 nM | 0.074 µM | – | –
33 | O=C(Nc1ccc2[nH]c(=O)oc2c1)C(=O)N1CCN(c2ccc(F)c(F)c2)CC1 [Compound I-99] | – | – | – | ≤ 100 nM | ≤ 0.1 µM
34 | O=C(CC1(O)CCN(c2ccc(C(F)(F)F)cn2)CC1)Nc1ccc2[nH]c(=O)oc2c1 [Compound I-61] | 218 to 219 °C | 37 nM | – | – | –
35 | O=C(Nc1ccc2[nH]c(=O)oc2c1)C(=O)N1CCN(c2ccc(C(F)(F)F)cc2)CC1 [Compound I-55] | – | 7 nM | 0.025 µM | – | –
36 | O=C(Nc1ccc2[nH]c(=O)oc2c1)NC1CCN(c2ccc(C(F)(F)F)cc2)CC1 [Compound I-23] | – | 25 nM | 0.04 µM | – | –
37 | O=C(Nc1ccc2[nH]c(=O)[nH]c2c1)C(=O)N1CCN(c2ccc(C(F)(F)F)cc2)CC1 [Compound I-79] | – | 2 nM | 0.013 µM | – | –
38 | O=C(C=C1CCN(c2ccc(Cl)cn2)CC1)Nc1ccc2[nH]c(=O)oc2c1 [Compound I-45] | – | 23 nM | – | – | ≤ 0.1 µM
39 | O=C(Nc1ccc2[nH]c(=O)oc2c1)C(=O)N1CCN(c2ccc(Cl)cc2)CC1 [Compound I-73] | – | 8 nM | 0.015 µM | – | –
40 | O=C(Nc1ccc2[nH]c(=O)oc2c1)C(=O)N1CCN(c2ccc(Br)cc2)CC1 [Compound I-87] | – | – | 0.012 µM | ≤ 100 nM | –
41 | O=C(Nc1ccc2[nH]c(=O)oc2c1)C(F)=C1CCN(c2ccc(C(F)(F)F)cc2)CC1 [Compound I-42] | – | 13 nM | 0.107 µM | – | –
42 | O=C(CC1CCN(c2ccc(C(F)(F)F)cn2)CC1)Nc1ccc2[nH]c(=O)oc2c1 [Compound I-62] | 229 to 230 °C | 92 nM | – | – | –
43 | O=C(NCC1CCN(c2ccc(C(F)(F)F)cc2)CC1)c1ccc(=O)[nH]c1 [Compound I-3] | 283 to 284 °C (dec.) | – | – | – | –
44 | O=C(CC1(O)CCN(c2ccc(C(F)(F)F)cc2)CC1)Nc1ccc2c(c1)CCC(=O)N2 [Compound I-64] | 222 to 223 °C | – | – | – | –
